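1) Cells in 96-well plates. 2) Compound, 48 h, 5 concentrations. 3) Linear interpolation between surrounding doses. 4) Unreached endpoint = highest concentration. The concentration for 50% growth inhibition is given as GI50. Definition used: TGI = concentration required for complete inhibition of growth.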
How the values were obtained:
Experiment in all cases: NCI-60 cell line screen, 48 h
[1] = test system: OVCAR-4 ovarian
[2] = test system: TK-10 renal
[3] = test system: OVCAR-5 ovarian
[4] = test system: MDA-MB-231 breast
[5] = test system: CCRF-CEM leukemia
[6] = test system: U251 CNS
[7] = test system: RXF 393 renal
[8] = test system: UACC-62 melanoma
[9] = test system: T-47D breast
[10] = test system: HT29 colon
[11] = test system: CAKI-1 renal
[12] = test system: IGROV1 ovarian
[13] = test system: SF-539 CNS
[14] = test system: SK-MEL-28 melanoma
[15] = test system: NCI-H23 lung
[16] = test system: MOLT-4 leukemia
[17] = test system: MCF7 breast
[18] = test system: HOP-92 NSCLC
[19] = test system: SK-MEL-2 melanoma
[20] = test system: KM12 colon
[21] = test system: NCI/ADR-RES ovarian
[22] = test system: MALME-3M melanoma
[23] = test system: MDA-MB-435
[24] = test system: RPMI-8226 leukemia
[25] = test system: DU-145 prostate
[26] = test system: A498 renal
[27] = test system: UO-31 renal
[28] = test system: LOX IMVI melanoma
[29] = test system: SF-295 CNS
[30] = test system: SR leukemia
[31] = test system: BT-549 breast
[32] = test system: OVCAR-8 ovarian
[33] = test system: COLO 205 colon
[34] = test system: A549 NSCLC
[35] = test system: NCI-H460 lung
[36] = test system: SNB-75 CNS
[37] = test system: HOP-62 NSCLC
[38] = test system: EKVX NSCLC
[39] = test system: HCT-116 colon
[40] = test system: M14 melanoma
[41] = test system: NCI-H522 lung
[42] = test system: ACHN renal
[43] = test system: HS 578T breast
[44] = test system: HCT-15 colon
[45] = test system: PC-3 prostate
[46] = test system: UACC-257 melanoma
[47] = test system: HL-60(TB) leukemia
[48] = test system: SNB-19 CNS
[49] = test system: HCC-2998 colon
[50] = test system: SN12C renal
[51] = test system: K-562 leukemia
[52] = test system: SK-OV-3 ovarian
[53] = test system: SW-620 colon
[54] = test system: SF-268 CNS
[55] = test system: NCI-H226 lung
[56] = test system: OVCAR-3 ovarian
[57] = test system: 786-0 renal
[58] = test system: SK-MEL-5 melanoma

With CC(C)(C)OC(=O)NC(Cc1ccccc1)C(=O)OCN1C(=O)C2C3C=CC(C2C1=O)C1C2C(=O)N(COC(=O)C(Cc4ccccc4)NC(=O)OC(C)(C)C)C(=O)C2C31 (centres undefined) the TGI [1] was > 100 µM, the TGI [2] was > 91.2 µM and the TGI [3] was > 100 µM. For the same molecule, the TGI [4] was > 94.2 µM, the TGI [5] was > 68.5 µM and the TGI [6] was > 100 µM. The TGI [7] was > 64.2 µM, the TGI [8] was > 100 µM and the TGI [9] was > 100 µM. For the same molecule, the TGI [10] was > 100 µM, the TGI [11] was > 100 µM and the TGI [12] was 97.4 µM. The TGI [13] was > 100 µM, the TGI [14] was > 100 µM and the TGI [15] was > 100 µM. For the same molecule, the TGI [16] was 82.4 µM, the TGI [17] was > 100 µM and the TGI [18] was > 100 µM. The TGI [19] was 98.5 µM, the TGI [20] was > 100 µM and the TGI [21] was > 100 µM. The TGI [22] was > 100 µM, the TGI [23] was > 100 µM and the TGI [24] was > 100 µM. For the same molecule, the TGI [25] was > 100 µM, the TGI [26] was > 90.9 µM and the TGI [27] was > 87.9 µM. For the same molecule, the TGI [28] was > 100 µM, the TGI [29] was > 100 µM and the TGI [30] was 4.06 µM. For the same molecule, the TGI [31] was 92.6 µM, the TGI [32] was > 100 µM and the TGI [33] was 28.7 µM. For the same molecule, the TGI [34] was > 73.8 µM, the TGI [35] was > 100 µM and the TGI [36] was 58.9 µM. The TGI [37] was > 100 µM, the TGI [38] was > 100 µM and the TGI [39] was > 88.5 µM. For the same molecule, the TGI [40] was > 100 µM, the TGI [41] was 85 µM and the TGI [42] was > 100 µM. The TGI [43] was 54.3 µM, the TGI [44] was > 100 µM and the TGI [45] was > 100 µM. The TGI [46] was > 100 µM, the TGI [47] was > 57.5 µM and the TGI [48] was > 82.7 µM. The TGI [49] was > 100 µM, the TGI [50] was > 100 µM and the TGI [51] was > 100 µM. The TGI [52] was > 95.5 µM, the TGI [53] was > 100 µM and the TGI [54] was > 88.9 µM. The TGI [55] was > 96.4 µM, the TGI [56] was > 100 µM and the TGI [57] was > 100 µM. The TGI [58] was > 74.8 µM.

CN(C)CC(=O)N1CCC(c2ccc(NC(=O)c3ncc(C#N)[nH]3)c(C3=CCCCC3)c2)CC1 was tested, and the GI50 [1] was 10.1 µM, the TGI [1] was 23 µM and the GI50 [2] was 7.86 µM. It also gave a TGI [2] of 20.6 µM, a GI50 [3] of 10.8 µM and a TGI [3] of 25.2 µM. For the same molecule, the GI50 [4] was 8.31 µM, the TGI [4] was 23.2 µM and the GI50 [5] was 7.26 µM. For the same molecule, the TGI [5] was 28.5 µM, the GI50 [6] was 4.66 µM and the TGI [6] was 16.9 µM. For the same molecule, the GI50 [7] was 3.25 µM, the TGI [7] was 14.2 µM and the GI50 [8] was 3.3 µM. It also gave a TGI [8] of 11.7 µM, a GI50 [9] of 11.9 µM and a TGI [9] of 28.8 µM. It also gave a GI50 [10] of 2.8 µM, a TGI [10] of 10.2 µM and a GI50 [11] of 3.52 µM. For the same molecule, the TGI [11] was 16.1 µM, the GI50 [12] was 7.48 µM and the TGI [12] was 25.7 µM. The GI50 [13] was 3.5 µM, the TGI [13] was 15 µM and the GI50 [14] was 2.2 µM. For the same molecule, the TGI [14] was 4.68 µM, the GI50 [15] was 5.51 µM and the TGI [15] was 19.5 µM. For the same molecule, the GI50 [16] was 3.72 µM, the TGI [16] was 12.7 µM and the GI50 [17] was 3.37 µM. It also gave a TGI [17] of 16.9 µM, a GI50 [18] of 0.21 µM and a TGI [18] of 2.74 µM. The GI50 [19] was 6.83 µM, the TGI [19] was 20.3 µM and the GI50 [20] was 0.354 µM. It also gave a TGI [20] of 13.8 µM, a GI50 [21] of 14.8 µM and a TGI [21] of 33.8 µM. The GI50 [22] was 4.3 µM, the TGI [22] was 16.1 µM and the GI50 [23] was 2.99 µM. It also gave a TGI [23] of 12.6 µM, a GI50 [24] of 8.76 µM and a TGI [24] of 34.6 µM. The GI50 [25] was 12 µM, the TGI [25] was 24.6 µM and the GI50 [26] was 9.71 µM. The TGI [26] was 22.4 µM, the GI50 [27] was 3.61 µM and the TGI [27] was 15 µM. The GI50 [28] was 3.17 µM, the TGI [28] was 12.7 µM and the GI50 [29] was 3.75 µM. For the same molecule, the TGI [29] was 15.7 µM, the GI50 [30] was 2.58 µM and the TGI [30] was 6.52 µM. For the same molecule, the GI50 [31] was 4.52 µM, the TGI [31] was 16.1 µM and the GI50 [32] was 8.34 µM. For the same molecule, the TGI [32] was 24 µM, the GI50 [33] was 4.43 µM and the TGI [33] was 14.1 µM. For the same molecule, the GI50 [34] was 5 µM, the TGI [34] was 17.2 µM and the GI50 [35] was 7.83 µM. For the same molecule, the TGI [35] was 23.4 µM, the GI50 [36] was 1.25 µM and the TGI [36] was 9.12 µM. For the same molecule, the GI50 [37] was 7.07 µM, the TGI [37] was 19.4 µM and the GI50 [38] was 14.1 µM. The TGI [38] was 28 µM, the GI50 [39] was 3.97 µM and the TGI [39] was 14.1 µM. The GI50 [40] was 2.21 µM, the TGI [40] was 4.97 µM and the GI50 [41] was 7.88 µM. The TGI [41] was 23.1 µM, the GI50 [42] was 5.42 µM and the TGI [42] was 17.8 µM. The GI50 [43] was 2.18 µM, the TGI [43] was 12.4 µM and the GI50 [44] was 2.71 µM. It also gave a TGI [44] of 9.22 µM, a GI50 [45] of 8.38 µM and a TGI [45] of 25.5 µM. The GI50 [46] was 2.17 µM, the TGI [46] was 4.8 µM and the GI50 [47] was 2.99 µM. For the same molecule, the TGI [47] was 8.86 µM, the GI50 [48] was 11.8 µM and the TGI [48] was 25.2 µM. For the same molecule, the GI50 [49] was 5.74 µM, the TGI [49] was 19 µM and the GI50 [50] was 2.74 µM. The TGI [50] was 16.9 µM, the GI50 [51] was 3.21 µM and the TGI [51] was 12 µM. The GI50 [52] was 5.33 µM, the TGI [52] was 17.4 µM and the GI50 [53] was 4.98 µM. The TGI [53] was 18.7 µM, the GI50 [54] was 10.4 µM and the TGI [54] was 24.2 µM. For the same molecule, the GI50 [55] was 11.3 µM, the TGI [55] was 24.2 µM and the GI50 [56] was 15.7 µM. For the same molecule, the TGI [56] was 29.6 µM, the GI50 [57] was 3.22 µM and the TGI [57] was 13.1 µM. The GI50 [58] was 3.5 µM and the TGI [58] was 13.4 µM.

From PubChem BioAssay (NCI)
